According to ChEMBL document CHEMBL1138597, “Synthesis and biological evaluation of ((4-keto)-phenoxy)methyl biphenyl-4-sulfonamides: a class of potent aggrecanase-1 inhibitors” (Bioorg Med Chem Lett, 2009):
Values belong to the compound of their own block, whether it stands above or below them. Active and inactive are the calls of the source. The rule behind the calls is not given here.

Tests used:
[1] = biological target: T1, A disintegrin and metalloproteinase with thrombospondin motifs 4 (Homo sapiens, UniProt O75173); assay: Inhibition of aggrecanase1
T1 sequence (O75173 whole entry): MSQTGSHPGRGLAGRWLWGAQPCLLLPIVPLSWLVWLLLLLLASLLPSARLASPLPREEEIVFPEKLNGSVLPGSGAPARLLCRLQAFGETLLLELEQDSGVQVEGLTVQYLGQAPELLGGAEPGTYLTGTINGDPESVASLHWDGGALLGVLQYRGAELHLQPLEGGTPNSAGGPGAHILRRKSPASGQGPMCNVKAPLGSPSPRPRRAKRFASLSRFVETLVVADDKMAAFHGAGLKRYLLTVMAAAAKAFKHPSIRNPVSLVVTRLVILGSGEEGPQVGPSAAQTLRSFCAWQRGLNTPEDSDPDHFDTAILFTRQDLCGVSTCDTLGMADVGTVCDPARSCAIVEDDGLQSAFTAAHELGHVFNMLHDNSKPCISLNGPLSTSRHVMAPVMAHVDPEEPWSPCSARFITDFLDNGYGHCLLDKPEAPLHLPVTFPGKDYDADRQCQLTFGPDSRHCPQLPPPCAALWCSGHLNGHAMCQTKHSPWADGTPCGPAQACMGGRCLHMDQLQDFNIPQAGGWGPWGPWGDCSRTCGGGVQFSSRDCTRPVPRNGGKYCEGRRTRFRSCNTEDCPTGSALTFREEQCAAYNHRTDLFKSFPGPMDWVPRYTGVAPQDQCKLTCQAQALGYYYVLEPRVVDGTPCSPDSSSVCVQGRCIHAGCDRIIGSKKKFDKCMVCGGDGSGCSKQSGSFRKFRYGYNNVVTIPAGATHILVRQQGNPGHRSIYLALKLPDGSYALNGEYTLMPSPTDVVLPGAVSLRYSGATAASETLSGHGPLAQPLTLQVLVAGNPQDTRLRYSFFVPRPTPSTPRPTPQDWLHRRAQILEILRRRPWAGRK

Interstitial collagenase = biological target: T2, Interstitial collagenase (Homo sapiens, UniProt P03956); assay: Inhibition of MMP1
T2 sequence (P03956 whole entry): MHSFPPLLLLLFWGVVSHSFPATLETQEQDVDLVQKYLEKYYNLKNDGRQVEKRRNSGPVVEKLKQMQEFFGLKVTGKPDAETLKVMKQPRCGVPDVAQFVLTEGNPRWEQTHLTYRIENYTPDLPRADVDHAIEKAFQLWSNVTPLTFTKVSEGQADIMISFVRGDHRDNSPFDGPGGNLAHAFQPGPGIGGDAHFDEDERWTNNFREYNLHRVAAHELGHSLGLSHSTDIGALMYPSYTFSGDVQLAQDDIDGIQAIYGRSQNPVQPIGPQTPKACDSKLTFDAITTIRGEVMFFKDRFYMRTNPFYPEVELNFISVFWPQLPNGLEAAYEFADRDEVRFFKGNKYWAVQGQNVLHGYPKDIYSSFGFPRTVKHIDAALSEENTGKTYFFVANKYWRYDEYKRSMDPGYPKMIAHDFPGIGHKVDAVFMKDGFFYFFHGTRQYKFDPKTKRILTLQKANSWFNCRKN

[2] = biological target: 72 kDa type IV collagenase (Homo sapiens, UniProt P08253); assay: Inhibition of MMP2
Collagenase 3 = Collagenase 3 (Homo sapiens, UniProt P45452); assay: Inhibition of MMP13
[3] = biological target: Matrix metalloproteinase-14 (Homo sapiens, UniProt P50281); assay: Inhibition of MMP14
[4] = biological target: T3, A disintegrin and metalloproteinase with thrombospondin motifs 4 (Bos taurus) (UniProt Q9TT93); assay: Inhibition of IL1-induced aggrecanase activity in bovine cartilage explant assessed as release of degraded extracellular matrix aggrecan
T3 sequence (whole entry): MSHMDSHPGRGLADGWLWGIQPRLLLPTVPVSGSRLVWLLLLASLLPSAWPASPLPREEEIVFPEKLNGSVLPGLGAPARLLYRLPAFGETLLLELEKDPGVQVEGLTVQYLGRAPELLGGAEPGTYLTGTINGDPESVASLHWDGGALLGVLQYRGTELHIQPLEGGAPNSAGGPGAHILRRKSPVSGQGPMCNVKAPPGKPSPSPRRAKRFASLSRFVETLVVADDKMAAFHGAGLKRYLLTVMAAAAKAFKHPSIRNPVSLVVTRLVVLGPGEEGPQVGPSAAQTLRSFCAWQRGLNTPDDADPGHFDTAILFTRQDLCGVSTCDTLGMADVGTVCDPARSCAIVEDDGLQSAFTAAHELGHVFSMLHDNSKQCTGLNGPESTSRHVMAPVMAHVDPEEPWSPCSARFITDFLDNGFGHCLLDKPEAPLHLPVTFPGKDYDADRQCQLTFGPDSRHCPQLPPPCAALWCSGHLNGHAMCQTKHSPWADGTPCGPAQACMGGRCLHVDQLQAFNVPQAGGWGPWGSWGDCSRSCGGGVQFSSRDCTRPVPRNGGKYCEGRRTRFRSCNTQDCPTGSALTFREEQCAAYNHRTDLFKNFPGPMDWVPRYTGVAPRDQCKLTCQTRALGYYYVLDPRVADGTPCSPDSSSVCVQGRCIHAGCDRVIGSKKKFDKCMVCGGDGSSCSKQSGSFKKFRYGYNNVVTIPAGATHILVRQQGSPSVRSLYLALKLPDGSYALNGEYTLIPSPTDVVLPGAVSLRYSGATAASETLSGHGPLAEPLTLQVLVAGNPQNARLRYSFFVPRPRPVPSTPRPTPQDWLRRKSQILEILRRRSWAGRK

[5] = biological target: T3, A disintegrin and metalloproteinase with thrombospondin motifs 4 (Bos taurus); assay: Inhibition of IL1-induced aggrecanase activity in bovine cartilage explant assessed as inhibition of proteoglycan degradation at 10 ug/ml after 3 days
[6] = biological target: T4, A disintegrin and metalloproteinase with thrombospondin motifs 5 (Homo sapiens, UniProt Q9UNA0); assay: Inhibition of aggrecanase2
T4 sequence (Q9UNA0 whole entry): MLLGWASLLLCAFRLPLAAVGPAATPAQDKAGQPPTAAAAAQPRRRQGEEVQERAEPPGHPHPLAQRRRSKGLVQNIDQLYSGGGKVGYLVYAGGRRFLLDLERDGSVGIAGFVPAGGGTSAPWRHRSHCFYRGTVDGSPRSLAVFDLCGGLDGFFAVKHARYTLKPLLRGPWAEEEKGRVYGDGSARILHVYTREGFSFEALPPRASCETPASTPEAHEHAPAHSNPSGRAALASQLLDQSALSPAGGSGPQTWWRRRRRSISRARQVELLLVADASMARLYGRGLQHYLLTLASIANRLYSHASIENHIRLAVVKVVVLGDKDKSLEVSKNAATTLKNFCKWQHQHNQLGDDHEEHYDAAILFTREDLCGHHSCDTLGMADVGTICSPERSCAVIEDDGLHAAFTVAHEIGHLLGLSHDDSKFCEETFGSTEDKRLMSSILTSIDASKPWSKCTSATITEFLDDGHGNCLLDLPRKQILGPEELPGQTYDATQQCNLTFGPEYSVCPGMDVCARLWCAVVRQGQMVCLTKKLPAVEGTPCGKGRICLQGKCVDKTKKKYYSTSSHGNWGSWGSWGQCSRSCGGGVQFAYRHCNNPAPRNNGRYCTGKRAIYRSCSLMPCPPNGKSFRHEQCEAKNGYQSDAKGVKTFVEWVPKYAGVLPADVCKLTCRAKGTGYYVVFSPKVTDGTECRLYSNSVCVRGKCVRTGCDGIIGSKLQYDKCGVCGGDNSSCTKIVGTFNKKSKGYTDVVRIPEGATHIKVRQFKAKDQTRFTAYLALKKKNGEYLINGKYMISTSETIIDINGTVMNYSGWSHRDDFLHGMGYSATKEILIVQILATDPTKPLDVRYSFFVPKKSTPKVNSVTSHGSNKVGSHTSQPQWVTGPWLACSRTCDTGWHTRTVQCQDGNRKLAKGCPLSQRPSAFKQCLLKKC

[7] = Half life in Sprague-Dawley rat at 2 mg/kg, iv or 25 mg/kg, po; assay type: ADME, organism-based; conditions: in vivo
[8] = Cmax in Sprague-Dawley rat at 2 mg/kg, iv or 25 mg/kg, po; assay type: ADME, organism-based; conditions: in vivo
[9] = Clearance in Sprague-Dawley rat at 2 mg/kg, iv or 25 mg/kg, po; assay type: ADME, organism-based; conditions: in vivo
[10] = Oral bioavailability in Sprague-Dawley rat at 25 mg/kg; assay type: ADME, organism-based; conditions: in vivo
[11] = biological target: T5, A disintegrin and metalloproteinase with thrombospondin motifs 5 (Homo sapiens) (UniProt Q9UNA0); assay: Inhibition of aggrecanase2 at 2.5 uM
T5 sequence (whole entry): T4 sequence (Q9UNA0 whole entry)

72 kDa type IV collagenase, sequence (P08253 whole entry): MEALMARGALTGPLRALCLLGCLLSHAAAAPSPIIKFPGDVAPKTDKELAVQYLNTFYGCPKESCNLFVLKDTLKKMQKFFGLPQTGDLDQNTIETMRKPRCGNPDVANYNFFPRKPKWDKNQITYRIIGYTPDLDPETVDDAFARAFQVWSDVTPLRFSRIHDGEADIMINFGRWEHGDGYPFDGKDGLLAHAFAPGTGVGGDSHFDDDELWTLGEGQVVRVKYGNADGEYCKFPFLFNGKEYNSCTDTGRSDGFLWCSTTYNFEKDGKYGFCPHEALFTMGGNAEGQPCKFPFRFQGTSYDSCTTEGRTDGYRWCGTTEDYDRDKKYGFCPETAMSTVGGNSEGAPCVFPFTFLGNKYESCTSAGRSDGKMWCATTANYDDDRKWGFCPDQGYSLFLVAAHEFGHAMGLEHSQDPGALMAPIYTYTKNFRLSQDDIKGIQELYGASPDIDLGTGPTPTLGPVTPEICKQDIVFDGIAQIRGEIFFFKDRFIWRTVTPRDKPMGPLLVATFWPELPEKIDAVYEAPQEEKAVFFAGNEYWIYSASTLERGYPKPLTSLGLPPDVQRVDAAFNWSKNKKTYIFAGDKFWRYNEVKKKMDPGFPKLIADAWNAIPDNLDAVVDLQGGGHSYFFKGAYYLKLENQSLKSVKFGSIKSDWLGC

Compound: CC(C)C(=O)c1ccc(OCc2ccc(-c3ccc(S(=O)(=O)N[C@@H](C(=O)O)C(C)C)cc3)cc2)cc1
- IC50 (Interstitial collagenase): > 100000 nM
- IC50 [2]: 1.3 nM
- IC50 (Collagenase 3): 1.1 nM
- IC50 [3]: 915 nM
- Activity [4]: Active
- Activity [5]: Active

Compound: CC(C)[C@@H](NS(=O)(=O)c1ccc(-c2ccc(COc3cc4cccc(C(F)(F)F)c4nc3C(F)(F)F)cc2)cc1)C(=O)O
- IC50 [1]: 200 nM

Compound: CC(C)[C@@H](NS(=O)(=O)c1ccc(-c2ccc(COc3ccc4c(c3)CCCC4=O)cc2)cc1)C(=O)O
- IC50 [6]: 6600 nM
- IC50 [1]: 230 nM
- IC50 (Interstitial collagenase): > 100000 nM
- IC50 [2]: 6.3 nM
- IC50 (Collagenase 3): 2.2 nM
- IC50 [3]: 1300 nM
- Activity [4]: Active
- inhibition [5]: 53%

Compound: CC(C)[C@@H](NS(=O)(=O)c1ccc(-c2ccc(COc3ccc(C(=O)c4ccc(F)cc4)cc3)cc2)cc1)C(=O)O
- IC50 [1]: 80 nM
- inhibition [11]: 55%
- IC50 (Interstitial collagenase): > 100000 nM
- IC50 [2]: 3.6 nM
- IC50 (Collagenase 3): 6.3 nM
- IC50 [3]: 220 nM
- Activity [4]: Active
- inhibition [5]: 71%

Compound: Cc1c(CC(=O)Oc2ccc(-c3ccc(S(=O)(=O)N[C@@H](C(=O)O)C(C)C)cc3)cc2)oc2ccccc12
- IC50 [1]: 700 nM

Compound: CC(C)[C@@H](NS(=O)(=O)c1ccc(-c2ccc(COc3ccc(C(=O)c4ccccc4)cc3)cc2)cc1)C(=O)O
- IC50 [1]: 230 nM

Compound: CC(C)[C@@H](NS(=O)(=O)c1ccc(-c2ccc(COc3ccc4ccccc4n3)cc2)cc1)C(=O)O
- IC50 [1]: 400 nM

Compound: Cc1cccc(Oc2ccc(OCc3ccc(-c4ccc(S(=O)(=O)N[C@@H](C(=O)O)C(C)C)cc4)cc3)cc2)n1
- IC50 [1]: 730 nM

Next, values leading:

- IC50 [1]: 430 nM
Compound: CC(=O)c1ccc(OCc2ccc(-c3ccc(S(=O)(=O)N[C@@H](C(=O)O)C(C)C)cc3)cc2)cc1

- IC50 [1]: 4900 nM
Compound: CC(C)[C@@H](NS(=O)(=O)c1ccc(-c2ccc(COc3cccc(N(C)C)c3)cc2)cc1)C(=O)O

- IC50 [1]: 6000 nM
Compound: CC(C)[C@@H](NS(=O)(=O)c1ccc(-c2ccc(COc3ccc(CN4CCOCC4)cc3)cc2)cc1)C(=O)O

- half-life [7]: 3.07 h
- Cmax [8]: 694 ng/mL
- IC50 [1]: 90 nM
- IC50 (Interstitial collagenase): > 100000 nM
- IC50 [2]: 5.3 nM
- IC50 (Collagenase 3): 15 nM
- IC50 [3]: 1640 nM
- Activity [4]: Active
- inhibition [5]: 69%
- clearance [9]: 6.9 mL/min/kg
- bioavailability [10]: 13%
Compound: CC(C)[C@@H](NS(=O)(=O)c1ccc(-c2ccc(COc3ccc(C(=O)C4CCCCC4)cc3)cc2)cc1)C(=O)O

- IC50 [1]: 590 nM
Compound: CC(C)[C@@H](NS(=O)(=O)c1ccc(-c2ccc(COc3ccc(NC(=O)OC(C)(C)C)cc3)cc2)cc1)C(=O)O

- IC50 [1]: 180 nM
Compound: CC(C)[C@@H](NS(=O)(=O)c1ccc(-c2ccc(COc3ccc4c(c3)CCCC4=O)cc2)cc1F)C(=O)O

- IC50 [1]: 5200 nM
Compound: CC(C)[C@@H](NS(=O)(=O)c1ccc(-c2ccc(COc3ccc(C(=O)N4CCOCC4)cc3)cc2)cc1)C(=O)O

- IC50 [1]: 3200 nM
Compound: CC(C)[C@@H](NS(=O)(=O)c1ccc(-c2ccc(COc3ccc4c(c3)CCCC4=O)cc2)cc1C(F)(F)F)C(=O)O

- IC50 [1]: 20000 nM
Compound: CC(C)[C@@H](NS(=O)(=O)c1ccc(-c2ccc(COc3ccc4c(c3)CCCC4=O)cc2)cc1OC(F)(F)F)C(=O)O
